Experimental data from PMC7997574, “Lead Optimization of Benzoxazolone Carboxamides as Orally Bioavailable and CNS Penetrant Acid Ceramidase Inhibitors” (Journal of Medicinal Chemistry, 2020).

Legend:
GCase = molecular target: T1, GCase (Homo sapiens, UniProt P04062); assay: In vitro hGCase assay; type: biochemical; conditions: 1 and 10 μM
T1 construct: 5 nM purified human full-length GCase enzyme; made in house
T1 sequence (P04062 40-536): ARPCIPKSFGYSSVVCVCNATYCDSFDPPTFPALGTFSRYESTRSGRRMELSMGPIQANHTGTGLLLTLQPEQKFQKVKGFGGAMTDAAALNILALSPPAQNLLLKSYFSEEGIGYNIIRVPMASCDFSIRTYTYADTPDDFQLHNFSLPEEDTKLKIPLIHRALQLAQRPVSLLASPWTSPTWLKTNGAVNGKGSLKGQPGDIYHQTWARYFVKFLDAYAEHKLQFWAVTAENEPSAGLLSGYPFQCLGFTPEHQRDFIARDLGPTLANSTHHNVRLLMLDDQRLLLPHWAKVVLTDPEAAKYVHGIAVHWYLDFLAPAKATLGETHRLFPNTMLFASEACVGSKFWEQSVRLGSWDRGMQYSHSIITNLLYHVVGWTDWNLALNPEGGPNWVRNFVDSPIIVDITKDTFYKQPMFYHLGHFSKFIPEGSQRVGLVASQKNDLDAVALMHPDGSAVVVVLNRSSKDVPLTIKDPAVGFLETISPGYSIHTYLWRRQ
Description: hGCase activity measurement was conducted using the fluorogenic substrate 4-methylumbelliferyl-β-D-[…] hydrate (4-MUG, Merck) at 1 mM and 5 nM purified human full-length GCase enzyme and 50 nM of its natural activator SapC (both GCase and SapC were purified in house) in a buffer containing 50 mM citric acid, 174 mM K2HPO4, 15 μM phosphatidylserine, and 0.32 mM Triton X-100 at pH 4.7 in a final volume of 50 μL. The reaction mixtures were incubated for 15 min at rt and stopped by the addition of 150 μL of 1 M glycine at pH 12.5. The cleavage of 4-MUG was monitored by a plate reader at excitation/emission wavelengths of 365/440 nm. The average hGCase activity was calculated from two independent experiments, each performed in two technical replicates.

[1] = In vivo pharmacokinetic study in male CD1 mice; conditions: mouse
Description: Male CD1 mice (22–24 g, 6 weeks old, SLAC Laboratory Animal Co. Ltd.) were group-housed in ventilated cages and had free access to water and food. They were maintained under a […] at controlled temperature and relative humidity. All efforts were made to minimize animal suffering and to use the minimal number of animals required to produce reliable results. All procedures were performed in accordance with the Ethical Guidelines on the Protection of Animals Used for Scientific Purposes at the DMPK Group at Shanghai ChemPartner Co., Ltd. 22m was administrated intravenously (i.v.) at 3 mg kg^–1 (vehicle: 100% saline at 0.6 mg mL^–1) via tail vein injection (N = 18) and via oral administration (p.o.) at 10 mg kg^–1 (vehicle: 100% saline at 2.0 mg mL^–1) by oral gavage (N = 18). Sample collection. Samples were collected at 0.25, 0.5, 1, 4, 8, and 24 h. Animals were sacrificed 24 h after 22m administration; plasma, brain, and CSF samples were collected and stored at −80 °C. Blood collection: The animal was restrained manually, and approximately 150 μL of blood/time point was collected into the K2EDTA tube via retro orbital puncture under anesthesia with isoflurane. The blood sample was put on ice and centrifuged to obtain the plasma sample (2000 × g, 5 min under 4 °C) within 15 min and then acidified following 100 μL of plasma + 1.0 μL of formic acid. An aliquot of 20 μL sample (pretreatment with 1% formic acid) was added with 200 μL of IS (propranolol, 40 ng mL^–1) in MeCN. The mixture was vortexed for 5 min and centrifuged at 6000 rpm for 10 min. The 0.5 μL mixture was injected into LC/MS/MS. Brain collection: Brain was removed and immediately homogenized immediately for 2 min with three volumes (v/w) of homogenizing solution (PBS:formic acid = 100:1), and then the solution was stored in tubes under −70 °C until analysis. An aliquot of 20 μL sample was added with 200 μL of MeCN, which contains IS (propranolol, 40 ng mL^–1) for protein precipitation. The mixture was vortexed for 5 min and centrifuged at 6000 rpm for 10 min. The 0.5 μL mixture was injected into LC/MS/MS. CSF collection: A midline incision was made on the neck. The muscle under the skin was cut to expose the cisterna magna. The CSF was collected by capillary. An aliquot of 3 μL sample was added with 90 μL of IS (propranolol, 40 ng mL^–1) in MeCN:H2O = 2:1 (added 1% formic acid). The mixture was vortexed for 5 min and centrifuged at 6000 rpm for 10 min. The 1.5 μL mixture was injected into LC/MS/MS. 22m sample levels were monitored on an LC/MS/MS-19 (API5500, Qtriple) system, using the calibration curve and […] as internal standard. Chromatography was carried out on a Waters BEH C18 column (2.1 × 50 mm, 1.7 μm) at 60 °C, setting a flow rate of 0.60 mL min^–1. Mobile phases were as follows: A = H2O/0.025% formic acid/1 mM NH4OAc and B = MeOH/0.025% formic acid/1 mM NH4OAc. After the initial 0.20 min at 10% of mobile phase B, the percentage of mobile phase B increased at 70% at 0.50 min, reaching steadily 90% in the range of 0.80–1.30 min. Then the system returned to the initial conditions in a single step until 1.80 min. The following parent (m/z)/daughter (m/z) transitions were monitored: 22m: m/z = 332.20/[…] Da; […] (IS): m/z: 260.30/116.10 Da.

[2] = plasma, oral bioavailability, 10 mg kg^–1 p.o.

## CC(C)CNC(=O)n1c(=O)oc2cc(C3CCN(C)CC3)ccc21 [22m, N-Isobutyl-6-(1-methyl-4-piperidyl)-2-oxo-1,3-benzoxazole-3-carboxamide]
GCase
  effect on activity of GCase: no effect
[1]; iv, CSF, 3 mg kg^–1 i.v.
  AUC at 24 h: 77.8 ng·h/mL
  Cmax at 24 h: 71.6 ng/mL
  Tmax: 0.25 h
  half-life at 24 h: 0.661 h
[1]; iv, brain, 3 mg kg^–1 i.v.
  AUC at 24 h: 10100 ng·h/mL
  Cmax at 24 h: 6440 ng/mL
  Tmax: 0.25 h
  half-life at 24 h: 1.01 h
[1]; iv, plasma, 3 mg kg^–1 i.v.
  AUC at 24 h: 212 ng·h/mL
  half-life: 1 h
  half-life at 24 h: 1.26 h
[1]; iv, plasma, 3 mg kg^–1 i.v., read-out: Cl (L h^–1 kg^–1) (converted)
  clearance at 24 h: 235 mL/min/kg
[1]; iv, plasma, 3 mg kg^–1 i.v., read-out: Vdss (L kg^–1)
  Vd at 24 h: 12.5 L/kg
[1]; [2]
  bioavailability: 58%
  bioavailability at 24 h: 58.3%
[1]; po, CSF, 10 mg kg^–1 p.o.
  AUC at 24 h: 119 ng·h/mL
  Cmax at 24 h: 52.2 ng/mL
  Tmax: 1 h
  half-life at 24 h: 1.23 h
[1]; po, brain, 10 mg kg^–1 p.o.
  AUC at 24 h: 14600 ng·h/mL
  Cmax at 24 h: 6900 ng/mL
  Tmax: 1 h
  half-life at 24 h: 1.18 h
[1]; po, plasma, 10 mg kg^–1 p.o.
  AUC at 24 h: 412 ng·h/mL
  Cmax at 24 h: 216 ng/mL
  Tmax at 24 h: 0.5 h
  half-life at 24 h: 1.03 h
